Experimental data: patent US8877927B2 (Grunenthal GmbH, priority 2006, dated 2014)

What was measured:
[1] = Liver microsomal incubations (RLM); format: in vitro ADME; settings: rat liver microsomes 0.5 mg/mL, 25 μM, NADPH, percent remaining at 1 hour
Procedure: (§1) Human and rat liver microsomes were purchased from BD Gentest (Woburn, Mass., USA) and β-nicotinamide adenine dinucleotide 2′-phosphate reduced tetrasodium salt (NADPH) was purchased from Sigma-Aldrich (Poole, Dorset, UK). All liver microsome incubations were carried out in 50 mM potassium phosphate buffer at pH 7.4, with a final microsomal protein concentration of 0.5 mg/mL. […] In brief, compounds were added to the incubation buffer along with the liver microsomes and incubated at 37° C. for 10 minutes. The reaction was then initiated by the addition of NADPH, previously dissolved in incubation buffer, to give a final concentration of 1 mM and re-incubated at 37° C. Aliquots were removed at 2 and 60 minutes and quenched with an equal volume of cold acetonitrile. After mixing vigorously, the precipitated protein matter was removed by filtration (Multiscreen Solvinert filter plates, Millipore, Bedford, Mass., USA) and the filtrate analysed by reverse phase HPLC with mass spectrometric detection, using single ion monitoring of the [M+H]^+ species. Metabolic turnover was determined by comparison of peak areas from the ion chromatograms of the parent compound at 2 and 60 minutes and expressed as percent remaining at 1 hour.

[2] = Liver microsomal incubations (HLM); format: in vitro ADME; settings: human liver microsomes 0.5 mg/mL, 25 μM, NADPH, percent remaining at 1 hour
Procedure: as §1

[3] = Plasma incubations (human plasma stability); format: in vitro ADME; settings: 25 μM, 37° C., percent remaining at 1 hour
Procedure: (§2) Human and rat plasma were purchased from Innovative Research Inc. (Southfield. Mich., USA). […] Aliquots were removed at 2 and 60 minutes and quenched with an equal volume of cold acetonitrile. After mixing vigorously, the precipitated protein matter was removed by filtration (Multiscreen Solvinert filter plates, Millipore, Bedford, Mass., USA) and the filtrate analysed by reverse phase HPLC with mass spectrometric detection, using single ion monitoring of the [M+H]^+ species. Metabolic turnover was determined by comparison of peak areas from the ion chromatograms of the parent compound at 2 and 60 minutes and expressed as percent remaining at 1 hour.

[4] = biological target: T1, Human recombinant cathepsin K (Homo sapiens, UniProt P43235); experiment: In vitro cathepsin K Ki inhibition measurement; format: biochemical; settings: for Ki: recombinant human cathepsin K, read-out: In vitro Ki (nM) vs Cath K
T1 construct: purchased B. Turk, Josef, Stefan Institute, Ljubljana, Slovenia
T1 sequence (P43235 115-329): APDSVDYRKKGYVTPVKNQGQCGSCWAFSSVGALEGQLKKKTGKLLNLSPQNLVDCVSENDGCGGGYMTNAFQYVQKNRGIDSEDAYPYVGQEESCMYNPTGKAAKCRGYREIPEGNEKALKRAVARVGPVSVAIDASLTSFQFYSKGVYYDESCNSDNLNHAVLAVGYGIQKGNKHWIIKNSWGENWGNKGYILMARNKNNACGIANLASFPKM
Procedure: Stock solutions of substrate or inhibitor were made up to 10 mM in 100% dimethylsulfoxide (DMSO) (Rathbums, Glasgow, U.K.) and diluted as appropriately required. In all cases the DMSO concentration in the assays was maintained at less than 1% (vol./vol.). The equilibrium inhibition constants (Ki^ss) for each compound were measured under steady-state conditions monitoring enzyme activity as a function of inhibitor concentration. The values were calculated on the assumption of pure competitive behaviour (Cornish-Bowden, A. Fundamentals of enzyme kinetics Portland Press; 1995, 93-128.). Human recombinant cathepsin K (0.25 nM final; B. Turk, Josef, Stefan Institute, Ljubljana, Slovenia), was routinely assayed in 100 mM sodium acetate; pH 5.5 containing 1 mM EDTA, 10 mM L-cysteine and 1.8 μM Z-Leu-Arg-AMC ([S]═KM).
The apparent inhibition constant (Ki) for each compound was determined on the basis that inhibition was reversible and occurred by a pure-competitive mechanism. The Ki values were calculated, from the dependence of enzyme activity as a function of inhibitor concentration, by direct regression analysis (Prism v 3.02) using Equation 2 (Cornish-Bowden, A., 1995.).
In situations where the apparent dissociation constant (Ki^app) approached the enzyme concentrations, the Ki^app values were calculated using a quadratic solution in the form described by Equation 3 (Morrison, J. F. Trends Biochem. Sci., 7, 102-105, 1982; Morrison, J. F. Biochim. Biophys. Acta, 185, 269-286, 1969; Stone, S. R. and Hofsteenge, J. Biochemistry, 25, 4622-4628, 1986).
In Equation 3 ‘vi’ is the observed residual activity, ‘F’ is the difference between the maximum activity (i.e. in the absence of inhibitor) and minimum enzyme activity, ‘Eo’ is the total enzyme concentration, ‘Ki^app’ is the apparent dissociation constant and ‘Io’ is the inhibitor concentration. Curves were fitted by non-linear regression analysis (Prism) using a fixed value for the enzyme concentration. Equation 4 was used to account for the substrate kinetics, where ‘Ki’ is the inhibition constant, ‘[So]’ is the initial substrate concentration and ‘KM^app’ is the apparent macroscopic binding (Michaelis) constant for the substrate (Morrison, 1982).

[5] = Plasma incubations (rat plasma stability); format: in vitro ADME; settings: 25 μM, 37° C., percent remaining at 1 hour
Procedure: as §2

[6] = Rat pharmacokinetics (oral bioavailability, clearance); format: in vivo; settings: for clearance / bioavailability: in vivo; for bioavailability: oral, read-out: Rat Oral Bioavailability (% F); for reduction in clearance: compared to prior art compound 42
[7] = compared to prior art compound 11
[8] = compared to prior art compound 42

| RLM % rem. @ 1 hr [1] [%] | HLM % rem. @ 1 hr [2] [%] | Human Plasma Stability % rem. @ 1 h [3] [%] | Rat Plasma Stability % rem. @ 1 h [5] [%] | clearance [6] [mL/min/kg] | bioavailability [6] [%] | reduction in clearance [6] | improvement in in vitro potency against recombinant human cathepsin K [4, 8] [fold] | Ki [4] [nM] | Compound | also measured |
| --- | --- | --- | --- | --- | --- | --- | --- | --- | --- | --- |
| 4.3 | 79.4 | 82.5 | 93 | – | – | – | – | – | CN1CCN(c2nc(-c3ccc(C(=O)N[C@H](C(=O)N4CC[C@H]5OCC(=O)[C@H]54)C4CCCC4)cc3)cs2)CC1 [prior art compound 13] | improvement in in vitro potency against recombinant human cathepsin K [4, 7]: only minor improvement |
| 76.6 | 95 | 95 | 84.2 | 79 | 31.5 | – | – | – | CC(C)C[C@H](NC(=O)c1ccc(N2CCN(C)CC2)cc1)C(=O)N1CC[C@H]2OCC(=O)[C@H]21 [prior art compound 42] | – |
| 93.9 | 91.2 | 97.2 | 94.1 | 56 | 45 | 29% | 5 | 1.8 | CN1CCN(c2ccc(C(=O)N[C@H](C(=O)N3CC[C@H]4OCC(=O)[C@H]43)C3CCCC3)cc2)CC1 [prior art compound 12] | – |
| 3.5 | 74 | 96.3 | 88 | – | – | – | – | 0.9 | CN1CCN(c2nc(-c3ccc(C(=O)N[C@H](C(=O)N4C[C@@H](F)[C@H]5OCC(=O)[C@H]54)C4CCCC4)cc3)cs2)CC1 [Example 7] | – |
| 73.3 | 98.2 | 93.1 | 100 | 25 | 80 | 68% | – | 14.9 | CN1CCN(c2ccc(C(=O)N[C@H](C(=O)N3CC(F)[C@H]4OCC(=O)[C@H]43)C3CCCCC3)cc2)CC1 (stereo in doubt) [Example 2, N—((S)-1-cyclohexyl-2-((3aS,6S,6aS)-6-fluoro-3-oxodihydro-2H-furo[3,2-b]pyrrol-4(5H,6H,6aH)-yl)-2-oxoethyl)-4-(4-methylpiperazin-1-yl)benzamide] | – |
| 7.7 | 54.1 | 96 | 85.1 | – | – | – | – | 0.3 | CN1CCN(c2nc(-c3ccc(C(=O)N[C@H](C(=O)N4C[C@@H](Cl)[C@H]5OCC(=O)[C@H]54)C4CCCC4)cc3)cs2)CC1 [Example 8] | – |
| – | – | – | – | – | – | – | – | 1.8 | CC(C)C[C@H](NC(=O)c1ccc(N2CCN(C)CC2)cc1)C(=O)N1C[C@@H](Cl)[C@H]2OCC(=O)[C@H]21 [prior art compound 14] | RLM % rem. @ 1 hr ([1]; listed as drawing 58): 85.5%; HLM % rem. @ 1 hr ([2]; listed as drawing 58): 84.8%; Human Plasma Stability % rem. @ 1 h ([3]; listed as drawing 58): 85.5%; Rat Plasma Stability % rem. @ 1 h ([5]; listed as drawing 58): 92.8% |
| 81.3 | 85.6 | 97.4 | 96.6 | 107 | 37 | – | 17 | 0.5 | CN1CCN(c2ccc(C(=O)N[C@H](C(=O)N3CC(Cl)[C@H]4OCC(=O)[C@H]43)C3CCCC3)cc2)CC1 (stereo in doubt) [Example 5, N—((S)-2-((3aS,6S,6aS)-6-chloro-3-oxodihydro-2H-furo[3,2-b]pyrrol-4(5H,6H,6aH)-yl)-1-cyclopentyl-2-oxoethyl)-4-(4-methylpiperazin-1-yl)benzamide] | increase in in vitro potency against recombinant human cathepsin K ([4]; compared to the direct (S)-leucine analogue (14)): 3.5 fold |
| 4.8 | 82.6 | 92.6 | 88.6 | – | – | – | – | – | CC(C)C[C@H](NC(=O)c1ccc(-c2csc(N3CCN(C)CC3)n2)cc1)C(=O)N1CC[C@H]2OCC(=O)[C@H]21 [prior art compound 11] | – |
| 93.6 | 96.8 | 100 | 94.2 | 81 | 40 | no effect | 2.4 | 3.6 | CC(C)C[C@H](NC(=O)c1ccc(N2CCN(C)CC2)cc1)C(=O)N1C[C@@H](F)[C@H]2OCC(=O)[C@H]21 [prior art compound 10] | – |
| – | – | – | – | – | – | – | – | 3.7 | CC(C)C[C@H](NC(=O)c1ccc(N2CCN(C)CC2)cc1)C(=O)N1C[C@@H](Cl)[C@H]2OCC(=O)[C@H]21 [prior art compound 15] | RLM % rem. @ 1 hr ([1]; listed as drawing 59): 81.6%; HLM % rem. @ 1 hr ([2]; listed as drawing 59): 80.3%; Human Plasma Stability % rem. @ 1 h ([3]; listed as drawing 59): 90.3%; Rat Plasma Stability % rem. @ 1 h ([5]; listed as drawing 59): 88.9% |
| 4.4 | 66.7 | 70.2 | 90.2 | – | – | – | – | 1.5 | CC(C)C[C@H](NC(=O)c1ccc(-c2csc(N3CCN(C)CC3)n2)cc1)C(=O)N1C[C@@H](F)[C@H]2OCC(=O)[C@H]21 [prior art compound 8.19] | improvement in in vitro potency against recombinant human cathepsin K [4, 7]: only minor improvement |
| 82 | 100 | 96.4 | 95.9 | 23 | 88 | 71% | 5 | 1.7 | CN1CCN(c2ccc(C(=O)N[C@H](C(=O)N3C[C@H](F)[C@H]4OCC(=O)[C@H]43)C3CCCC3)cc2)CC1 [Example 1, N—((S)-1-cyclopentyl-2-((3aS,6S,6aS)-6-fluoro-3-oxodihydro-2H-furo[3,2-b]pyrrol-4(5H,6H,6aH)-yl)-2-oxoethyl)-4-(4-methylpiperazin-1-yl)benzamide] | – |
